Laboratory results from patent US12121521B2, “Uses of salt-inducible kinase (SIK) inhibitors for treating osteoporosis” (The General Hospital Corporation, priority 2016, dated 2024).

Test system: oophorectomized (OVX) female C57B/6 mice
Assay: OVX mice: micro-CT, histomorphometry, bone turnover markers
Assay type: in vivo, mouse
Protocol: Assessment of bone morphology and microarchitecture was performed with high-resolution micro-computed tomography (pCT40; Scanco Medical, Brüttisellen, Switzerland). In brief, the distal femoral metaphysis and mid-diaphysis were scanned using 70 kVp peak x-ray tube potential, 113 mAs x-ray tube current, 200 ms integration time, and 10-μm isotropic voxel size. Cancellous bone was assessed in the distal metaphysis and cortical bone was assessed in the mid-diaphysis. The femoral metaphysis region began 1700 μm proximal to the distal growth plate and extended 1500 μm distally. Cancellous bone was separated from cortical bone with a semiautomated contouring program. For the cancellous bone region, bone volume fraction (BV/TV, %), trabecular thickness (Tb.Th, mm), trabecular separation (Tb.Sp, mm), trabecular number (Tb.N, 1/mm), connectivity density (Conn.D or ConnD, 1/mm^3), and structure model index (SMI) were assessed. Transverse CT slices were also acquired in a 500 μm long region at the femoral mid-diaphysis to assess total cross-sectional area, cortical bone area, and medullary area (Tt.Ar, Ct.Ar, and Ma.Ar, respectively, all mm^2); bone area fraction (Ct.Ar/Tt.Ar, %), cortical thickness (Ct.Th, mm), porosity (Ct.Po, %) and minimum (Imin, mm^4), maximum (Imax, mm^4), and polar (J, mm^4) moments of inertia. Bone was segmented from soft tissue using the same threshold, 300 mg HA/cm^3 for trabecular and 733 mg HA/cm^3 for cortical bone. Scanning and analyses adhered to the guidelines for the use of micro-CT for the assessment of bone architecture in rodents (74). For the primary spongiosa region (where intermittent PTH treatment has its predominant effect) analyzed in FIG. 13A, coronal CT slices were evaluated in a 500 μm (50 slices) region located centrally in the bone. […] The primary spongiosa bone region was identified by semi-manually contouring the region of interest. Images were thresholded using an adaptive-iterative algorithm. The average adaptive-iterative threshold of control mice (WT, vehicle treated) for the region of interest (299 mgHA/cm^3) were then used to segment bone from soft tissue for all distal femur images. Micro-CT analysis was done based on sample numbers in a completely blinded manner.
Right tibia from 8-week-old mice were subjected to bone histomorphometric analysis. […] The structural, dynamic and cellular parameters were calculated and expressed according to the standardized nomenclature (75).
48 female C57B/6 mice were subjected to sham surgery (SHAM; n=24) or oophorectomy (n=24) at 12 weeks of age. […] The mice were assessed by micro-CT (μ-CT) of the femur and L5 vertebrae, and static/dynamic histomorphometry of the tibia.

In the case of `COc1ccc(N2C(=O)N(c3c(C)cccc3Cl)Cc3cnc(Nc4ccc(C5CCN(C)CC5)cc4OC)nc32)nc1` [YKL-05-099], the osteoblast numbers (FIG. 32A) is reported as “increased osteoblast numbers”, the “osteoclast activity / eroded surfaces” value (FIG. 32C) is reported as “reduced eroded surfaces” and the bone formation rate (FIG. 33C) is reported as “increased”. The trabecular bone mass (distal femur and L5 vertebrae) was “increased trabecular bone mass at both skeletal sites”.
